Consider three substances from patent US20160250285A1, “NEUROPROTECTIVE PEPTIDES” (priority 2013, published 2016).

Test [1] concerns primary cortical neuronal cultures. The settings on record: FIG. 2. On the procedure: Establishment of cortical cultures was as previously described (Meloni et al. 2001). Briefly, cortical tissue from E18-E19 Sprague-Dawley rats was dissociated in Dulbecco's modified Eagle medium (DMEM; Invitrogen, Australia) supplemented with 1.3 mM L-cysteine, 0.9 mM NaHCOa, 10 units/ml papain (Sigma, USA) and 50 units/ml DNase (Sigma) and washed in cold DMEM/10% horse serum. Neurons were resuspended in Neurobasal (Invitrogen) containing 2% B27 supplement (B27; Invitrogen). Before seeding, 96-well sized glass wells (6 mm diameter, ProTech, Australia) or 96-well plastic plates (ProSciTech, Australia) were coated with poly-D-lysine overnight ([…]: 50 mg/mL; 70-150 K, Sigma). Excess poly-D-lysine solution was then removed and replaced with Neurobasal (containing 2% B27; 4% fetal bovine serum; 1% horse serum; […] glutamate; […] 2-mercaptoethanol; and […]). Neurons were plated to obtain ≈10,000 viable neurons for each well on day in vitro 11-12. Neuronal cultures were maintained in a CO2 incubator (5% CO2, 95% air balance, 98% humidity) at 37° C. On day in vitro 4 one third of the culture medium was removed and replaced with fresh Neurobasal/2% B27 containing the mitotic inhibitor, cytosine arabinofuraNOside (1 mM final concentration; Sigma). On day in vitro 8 one half of the culture medium was replaced with Neurobasal/2% B27. Cultures were used on day in vitro 11 or 12 after which time they routinely consist of >97% neurons and 1-3% astrocytes (Meloni et al. 2001).
(§1) Peptides were added to culture wells (96-well plate format) 15 minutes prior to glutamic acid or kainic acid exposure by removing media and adding 50 μl of Neurobasal/2% 327 containing CPPs, control peptides or MK801/CNQX. To induce excitotoxicity, 50 μl of Neurobasal/2% B27 containing glutamic acid (200 μM) or kainic acid (400 μM) or NMDA (200 μM) was added to the culture wells (100 μM glutamic acid, 200 μM kainic acid and NMDA 100 μM final concentration). Cultures were incubated at 37° C. in the CO2 incubator for 5 minutes for glutamic acid, 45 minutes for kainic acid and 10 minutes for NMDA exposure, after which time the media was replaced with 100 μl of 50% Neurobasal/2% N2 supplement (Invitrogen) and 50% balanced salt solution (BSS; see below). Cultures were incubated for a further 24 hours at 37° C. in the CO2 incubator. The untreated controls with or without glutamic acid or kainic acid treatment received the same wash steps and media additions.
(§2) Twenty-four hours after insult, neuronal cultures were examined by light microscopy for qualitative assessment of neuronal cell viability. Neuronal viability was quantitatively measured by 3-(4,5,dimethyliazol-2-yl)-5-(3-carboxymethoxy-phenyl)-2-(4-sulfophenyl)-2H-tetrazolium salt (MTS) assay (Promega, Australia). The MTS assay measures the cellular conversion of the tetrazolium salt to a water-soluble brown formazan salt, which is detected spectrophotometrically at 490 nm. MTS absorbance data were converted to reflect proportional cell viability relative to both the untreated and treated controls, with the untreated control taken as 100% viability, and presented as mean±SEM. For studies using astrocytes, bEND3, and SH-Y5Y cells, raw MTS data was used to generate graphs. Viability data was analysed by ANOVA, followed by post-hoc Fischer's PLSD test, with P<0.05 values considered statistically significant. Four- to six wells were used in all assays.

Test [2] has the same test system. The settings on record: for neuroprotection (neuronal viability): peptide 15 min prior to and during glutamic acid exposure, viability 24 h, MTS; for neuroprotection when added immediately after glutamic acid exposure: 0 min post-insult (FIG. 1d); for neuroprotection when added 15 minutes post-insult: 15 min post-glutamic acid (FIG. 1d). As to the method:
Briefly, cortical tissue from E18-E19 Sprague-Dawley rats was dissociated in Dulbecco's modified Eagle medium (DMEM; Invitrogen, Australia) supplemented with 1.3 mM L-cysteine, 0.9 mM NaHCOa, 10 units/ml papain (Sigma, USA) and 50 units/ml DNase (Sigma) and washed in cold DMEM/10% horse serum. Neurons were resuspended in Neurobasal (Invitrogen) containing 2% B27 supplement (B27; Invitrogen). Before seeding, 96-well sized glass wells (6 mm diameter, ProTech, Australia) or 96-well plastic plates (ProSciTech, Australia) were coated with poly-D-lysine overnight ([…]: 50 mg/mL; 70-150 K, Sigma). […] Neurons were plated to obtain ≈10,000 viable neurons for each well on day in vitro 11-12. […] On day in vitro 4 one third of the culture medium was removed and replaced with fresh Neurobasal/2% B27 containing the mitotic inhibitor, cytosine arabinofuraNOside (1 mM final concentration; Sigma). On day in vitro 8 one half of the culture medium was replaced with Neurobasal/2% B27.
as §1, with “To” for “Peptides were added to culture wells (96-well plate format) 15 minutes prior to glutamic acid or kainic acid exposure by removing media and adding 50 μl of Neurobasal/2% 327 containing CPPs, control peptides or MK801/CNQX. To”
Following this step, cultures were treated as described above. Untreated controls with or without glutamic acid exposure received the same wash steps and media additions. In addition, a post-glutamic acid exposure CPP treatment (5 μM) experiment was performed for the R9 peptide and the JNKI-1D-TAT control peptide.
For pre-glutamic acid exposure experiments, neurons were exposed to peptide(s) for a 10 minute period, immediately before or 1, 2, 3, 4 or 5 hours prior to glutamic acid exposure. […] At the relevant peptide pre-treatment time, media was removed and replaced with 100 μl of Neurobasal/2%. […] Following 5-minute glutamic acid exposure, neuronal culture wells were treated as described above. For all experiments untreated controls with or without glutamic acid treatment underwent the same incubation steps and media additions.
Heparin (for injection) was obtained from Pfizer (1000 IU/ml). Two different heparin experiments were performed: 1. Peptides were incubated with heparin (20 IU/ml) in Neurobasal/B27 for 5 minutes at room temperature, before addition to culture wells (50 μl) for 15 minutes at 37° C. in the CO2 incubator. Following the incubation period, media in wells was removed and replaced with 100 μl of Neurobasal/2% B27 containing glutamic acid (100 μM), and subsequently treated as described above; 2. Media in wells was replaced with Neurobasal/2% B27 containing heparin (50 μl; 40 IU/ml) and incubated for 5 minutes at 37° C. in the CO2 incubator. After the incubation period, peptides or glutamate receptor blockers (MK801/CNQX) in Neurobasal/2% B27 (50 μl) were added to the culture wells and cultures incubated for a further 10 minutes at 37° C. in the CO2 incubator. Following the incubation period, media in wells was removed and replaced with 100 μl of Neurobasal/2% B27 containing glutamic acid (100 μM), and subsequently treated as described above. For all experiments, non-heparin treated peptide controls with glutamic acid treatment underwent the same incubation steps and media additions.
Twenty-four hours after insult, neuronal cultures were examined by light microscopy for qualitative assessment of neuronal cell viability.

Test [3] has the same test system. To be noted: values from Meade et al. (2010a,b); read-out: IC50: Glutamic acid model; cited from earlier work.
The test system is the same in test [4]. Briefly: In vitro ischemia / oxygen-glucose deprivation (OGD) model, neurons. It is filed as cell-based, rat. To be noted: peptide present during in vitro ischemia and at 50% dose after (FIG. 3a).
Test [5] has as its system intracellular calcium influx in neuronal cultures. Briefly: Intracellular calcium influx (Fura-2 AM) after glutamic acid. It is filed as cell-based, rat. The settings on record: peptide 5 μM for 10 min, removed before 100 μM glutamic acid (FIG. 44). On the technique in general: Calcium flux is commonly read through the fluorescence of an indicator in the cells.
Protocol: Fura-2 AM was used for intracellular calcium assessment. Representative fluorescent Fura-2 AM tracers; fluorescence intensity (FI) of neuronal cultures 30 sec before and following addition (arrow) of glutamic acid (100 μM final concentration). Peptides or glutamate receptor blockers were added to neuronal cultures for 10 min and removed (time 0) before glutamic acid. Values are mean±SE; n=3. Peptide concentration was 5 μM.
Briefly, cortical tissue from E18-E19 Sprague-Dawley rats was dissociated in Dulbecco's modified Eagle medium (DMEM; Invitrogen, Australia) supplemented with 1.3 mM L-cysteine, 0.9 mM NaHCOa, 10 units/ml papain (Sigma, USA) and 50 units/ml DNase (Sigma) and washed in cold DMEM/10% horse serum. Neurons were resuspended in Neurobasal (Invitrogen) containing 2% B27 supplement (B27; Invitrogen). Before seeding, 96-well sized glass wells (6 mm diameter, ProTech, Australia) or 96-well plastic plates (ProSciTech, Australia) were coated with poly-D-lysine overnight (50 ml/well: 50 mg/mL; 70-150 K, Sigma). Excess poly-D-lysine solution was then removed and replaced with Neurobasal (containing 2% B27; 4% fetal bovine serum; 1% horse serum; 62.5 mM glutamate; 25 mM 2-mercaptoethanol; and 30 mg/mL streptomycin and 30 mg/mL penicillin). Neurons were plated to obtain ≈10,000 viable neurons for each well on day in vitro 11-12. Neuronal cultures were maintained in a CO2 incubator (5% CO2, 95% air balance, 98% humidity) at 37° C. On day in vitro 4 one third of the culture medium was removed and replaced with fresh Neurobasal/2% B27 containing the mitotic inhibitor, cytosine arabinofuraNOside (1 mM final concentration; Sigma). On day in vitro 8 one half of the culture medium was replaced with Neurobasal/2% B27. Cultures were used on day in vitro 11 or 12 after which time they routinely consist of >97% neurons and 1-3% astrocytes (Meloni et al. 2001).
The test system of test [6] is primary cortical neuronal cultures. Briefly: NMDA excitotoxicity model. It is filed as cell-based, rat. To be noted: peptide 15 min before and during NMDA exposure (FIG. 37). On the procedure: Establishment of cortical cultures was as previously described (Meloni et al. 2001). Briefly, cortical tissue from E18-E19 Sprague-Dawley rats was dissociated in Dulbecco's modified Eagle medium (DMEM; Invitrogen, Australia) supplemented with 1.3 mM L-cysteine, 0.9 mM NaHCOa, 10 units/ml papain (Sigma, USA) and 50 units/ml DNase (Sigma) and washed in cold DMEM/10% horse serum. Neurons were resuspended in Neurobasal (Invitrogen) containing 2% B27 supplement (B27; Invitrogen). Before seeding, 96-well sized glass wells (6 mm diameter, ProTech, Australia) or 96-well plastic plates (ProSciTech, Australia) were coated with poly-D-lysine overnight ([…]: 50 mg/mL; 70-150 K, Sigma). […]
as §2, with “For studies using astrocytes, bEND3, and SH-Y5Y cells, raw MTS data was used to generate graphs. Viability data was analysed by ANOVA, followed by post-hoc Fischer's PLSD test, with P<0.05 values considered statistically significant. Four- to six wells were used in all assays.” left out

Test [7] has the same test system. The settings on record: values from Meade et al. (2010a,b); read-out: IC50: Kainic acid model; cited from earlier work.

Where two headings read alike, the source gives them in different places. Square brackets hold non-standard residues; d marks the D form.

As to “GRKKRRQRRRGGLQGRRRQGYQSIKP [PYC36L-TAT, reference compound]”, the neuroprotection entry in test [1] and in test [4] was “effective” each time. Further, the “effect of heparin on neuroprotective action” value in test [2] (heparin 20 IU/ml with peptide or 40 IU/ml on cultures (FIGS. 39, 40)) is listed as “blocks neuroprotective actions”. Moreover, the “neuroprotection (neuronal viability)” value in test [2] was “highly effective”. Besides, the half-maximal inhibitory concentration (IC50) (as a rule, the concentration that inhibits the measured activity by half) in test [3] is 1500 nM. For the same substance, the “calcium influx after glutamic acid” value in test [5] is “to varying degrees reduced calcium influx”.
With “H-GRKKRRQRRR-KLSSIESDV-NH2 (H-GRKKRRQRRRKLSSIESDV-NH2) [NR2B9c-TAT, reference compound]”, the neuroprotection result in test [6] is reported as “low level neuroprotection”. Also, in test [2], the “neuroprotection when added immediately after glutamic acid exposure” value is reported as “did not significantly increase neuronal survival” and the “neuroprotection when added 15 minutes post-insult” value was “did not significantly increase neuronal survival”. Further, in test [2] (FIG. 1i, comparison at 0.5 μM and 1 μM), the “neuroprotection, milder insult” value was “ineffective”. The “neuroprotection (neuronal viability)” value in test [2] (listed as TAT-NR29C) is recorded as “ineffective”. Also, in test [5], the “calcium influx after glutamic acid” value was “to varying degrees reduced calcium influx”.
Consider “H-tdqsrpvqpflnlttprkprpp-rrrqrrkkrG-NH2 (H-[dT][dD][dQ][dS][dR][dP][dV][dQ][dP][dF][dL][dN][dL][dT][dT][dP][dR][dK][dP][dR][dP][dP][dR][dR][dR][dQ][dR][dR][dK][dK][dR]G-NH2; SMILES CC(C)C[C@@H](NC(=O)[C@@H](Cc1ccccc1)NC(=O)[C@H]1CCCN1C(=O)[C@@H](CCC(N)=O)NC(=O)[C@H](NC(=O)[C@H]1CCCN1C(=O)[C@@H](CCCNC(=N)N)NC(=O)[C@@H](CO)NC(=O)[C@@H](CCC(N)=O)NC(=O)[C@@H](CC(=O)O)NC(=O)[C@H](N)[C@H](C)O)C(C)C)C(=O)N[C@H](CC(N)=O)C(=O)N[C@H](CC(C)C)C(=O)N[C@@H](C(=O)N[C@@H](C(=O)N1CCC[C@@H]1C(=O)N[C@H](CCCNC(=N)N)C(=O)N[C@H](CCCCN)C(=O)N1CCC[C@@H]1C(=O)N[C@H](CCCNC(=N)N)C(=O)N1CCC[C@@H]1C(=O)N1CCC[C@@H]1C(=O)N[C@H](CCCNC(=N)N)C(=O)N[C@H](CCCNC(=N)N)C(=O)N[C@H](CCCNC(=N)N)C(=O)N[C@H](CCC(N)=O)C(=O)N[C@H](CCCNC(=N)N)C(=O)N[C@H](CCCNC(=N)N)C(=O)N[C@H](CCCCN)C(=O)N[C@H](CCCCN)C(=O)N[C@H](CCCNC(=N)N)C(=O)NCC(N)=O)[C@H](C)O)[C@H](C)O) [JNKI-1D-TAT, reference compound]”, for which the neuroprotection entry in test [1] is listed as “effective”. The “neuroprotection when added immediately after glutamic acid exposure” value in test [2] is “ineffective”; in test [2] (listed as JNKI-1 D-TAT), “did not significantly increase neuronal survival”. Moreover, the “neuroprotection when added 15 minutes post-insult” value in test [2] is reported as “ineffective”; in test [2] (listed as JNKI-1 D-TAT), “did not significantly increase neuronal survival”. The results for the “neuroprotection (neuronal viability)” value in test [2] and in test [2] (listed as JNKI-1-TATD) were “highly effective” and “neuroprotective”, respectively. Also, the half-inhibitory concentration (IC50) was 2100 nM in test [3] and 6500 nM in test [7]. Also, the “calcium influx after glutamic acid” value in test [5] is “to varying degrees reduced calcium influx”.
